Data from PMC3249837 (ACS chemical neuroscience, 2011).

Test system: PS1ΔE9
Type: binding
Conditions: competitor at 10 µM, probes at 200 nM

`CC(C)CC[C@H](c1ccc(Cl)cc1)N1CC[C@@H](CC(=O)O)C[C@H]1c1ccc(C(F)(F)F)cc1` [Compound 1] was tested, and the “Competition of probe 4 and 5 labeling of PS1ΔE9 proteoliposomes” value was “blocked”.
